IC50, half-life and CLint scaled data for four compounds are collected here from patent US20170081338A1, “SUBSTITUTED HETEROARYL COMPOUNDS AND METHODS OF USE” (Sunshine Lake Pharma Co., Ltd., priority 2015, published 2017).

One series has as its target T1, Aurora-A (h) (Homo sapiens, UniProt O14965).
T1 construct: purchased Millipore UK Ltd (contract assay service)
T1 sequence (O14965 1-403): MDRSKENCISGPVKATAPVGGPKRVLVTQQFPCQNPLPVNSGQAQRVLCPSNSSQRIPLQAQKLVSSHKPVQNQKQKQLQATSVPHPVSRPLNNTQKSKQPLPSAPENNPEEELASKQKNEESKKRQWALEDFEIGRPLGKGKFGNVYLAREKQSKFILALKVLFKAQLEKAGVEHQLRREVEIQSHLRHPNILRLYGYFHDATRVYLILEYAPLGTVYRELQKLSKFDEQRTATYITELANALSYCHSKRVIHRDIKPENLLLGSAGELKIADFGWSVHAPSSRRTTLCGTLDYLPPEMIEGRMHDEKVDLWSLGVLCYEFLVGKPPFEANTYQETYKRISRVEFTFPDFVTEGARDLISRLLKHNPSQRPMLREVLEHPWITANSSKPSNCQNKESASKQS
In words: Aurora-A (h) kinase assay. It is filed as biochemical. In outline: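 Human Aurora-A incubated with 200 μM Kemptide, 10 mM Mg acetate, [γ-33P]ATP in 8 mM MOPS pH 7.0 for 40 min at room temperature; stopped with phosphoric acid, spotted on P30 filtermat and scintillation counted. IC50 from 10-point ½-log dilution series.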

The target of another series is T2, Aurora-B (h) (Homo sapiens, UniProt Q96GD4).
T2 construct: purchased Millipore UK Ltd (contract assay service)
Briefly: Aurora-B (h) kinase assay. In kind it is biochemical. The procedure:
Kinase assays can be performed by measurement of incorporation of γ-^33P ATP into immobilized myelin basic protein (MBP). High binding white 384 well plates (Greiner) are coated with MBP (Sigma #M-1891) by incubation of 60 μL/well of 20 μg/mL MBP in Tris-buffered saline (TBS; 50 mM Tris pH 8.0, 138 mM NaCl, 2.7 mM KCl) for 24 h at 4° C. Plates are washed 3× with 100 μL TBS. Kinase reactions are carried out in a total volume of 34 μL in kinase buffer (according to the need to make, for example, 5 mM Hepes pH 7.6, 15 mM NaCl, 0.01% bovine gamma globulin (Sigma #1-5506), 10 mM MgCl2, 1 mM DTT, 0.02% TritonX-100). Compound dilutions are performed in DMSO and added to assay wells to a final DMSO concentration of 1%. Each data point is measured in duplicate, and at least two duplicate assays are performed for each individual compound determination. Enzyme is added to final concentrations of 10 nM or 20 nM, for example. A mixture of unlabeled ATP and γ-^33P ATP is added to start the reaction (2×10^6 cpm of γ-^33P ATP per well (3000 Ci/mmole) and 10 μM unlabeled ATP, typically. The reactions are carried out for 1 h at room temperature with shaking. Plates are washed 7× with TBS, followed by the addition of 50 µL/well scintillation fluid (Wallac). Plates are read using a Wallac Trilux counter. This is only one format of such assays; various other formats are possible, as known to one skilled in the art.
The above assay procedure can be used to determine the IC50 for inhibition and/or the inhibition constant, Ki. The IC50 is defined as the concentration of compound required to reduce the enzyme activity by 50% under the condition of the assay. The IC50 value is estimated by preparing a 10 point curve using a 1/2 log dilution series (for example, a typical curve may be prepared using the following compound concentrations: 3 μM, 1 μM, 0.3 μM, 0.1 μM, 0.03 μM, 0.01 μM, 0.003 μM, 0.001 μM, 0.0003 μM and 0 μM).
Aurora-B (h) is incubated with 8 mM MOPS pH 7.0, 0.2 mM EDTA, 30 μM AKRRRLSSLRA, 10 mM MgAcetate and [γ-^33PATP] (specific activity approx. 500 cpm/pmol, concentration as required). The reaction is initiated by the addition of the MgATP mix. After incubation for 40 minutes at room temperature, the reaction is stopped by the addition of a 3% phosphoric acid solution. 10 μL of the reaction is then spotted onto a P30 filtermat and washed three times for 5 minutes in 75 mM phosphoric acid and once in methanol prior to drying and scintillation counting.
The kinase assays described herein were performed at Millipore UK Ltd, Dundee Technology Park, Dundee DD2 1SW, UK.

The nature of series [1]: Compound stability in human liver microsomes. It is filed as in vitro ADME. The note with it: pH 7.4; for half-life at 5 μM: human liver microsomes 0.5 mg protein/mL, compound 5 μM, NADPH, 37° C., read-out: Human T1/2; for CLint scaled at 5 μM: human liver microsomes, in vivo CLint extrapolated. The method in brief: (§1)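 Microsomes 0.5 mg protein/mL; cpd 5 μM; NADPH 1.0 mM; 100 mM phosphate pH 7.4; DMSO 0.05%; 37° C; duplicates. Timepoints 0–60 min, acetonitrile stop, LC/MS/MS. Data as % of zero-time; CLint extrapolated.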

A short description of series [2]: Compound stability in rat liver microsomes. It is filed as in vitro ADME. Particulars: pH 7.4; for half-life at 5 μM: rat liver microsomes 0.5 mg protein/mL, compound 5 μM, NADPH, 37° C., read-out: Rat T1/2; for CLint scaled at 5 μM: rat liver microsomes, in vivo CLint extrapolated. The method in brief: as §1

Molecules are shown by their SMILES.

T2 sequence (Q96GD4 whole entry): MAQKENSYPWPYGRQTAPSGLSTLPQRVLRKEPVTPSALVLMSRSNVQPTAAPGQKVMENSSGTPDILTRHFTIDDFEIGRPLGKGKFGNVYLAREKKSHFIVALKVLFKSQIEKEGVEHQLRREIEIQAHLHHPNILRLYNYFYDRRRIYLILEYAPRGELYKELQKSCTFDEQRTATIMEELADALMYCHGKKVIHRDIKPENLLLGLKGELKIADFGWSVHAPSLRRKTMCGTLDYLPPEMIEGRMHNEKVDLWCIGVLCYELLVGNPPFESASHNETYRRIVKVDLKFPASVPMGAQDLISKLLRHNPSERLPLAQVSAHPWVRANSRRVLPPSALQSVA

On to `CC(C)CS(=O)(=O)N[C@H]1COC2C1OC[C@H]2Nc1nc(Nc2cnn(C)c2)ncc1Cl` (stereo partly drawn) [Ex. 2, N-((3S,6R)-6-((5-chloro-2-((1-methyl-1H-pyrazol-4-yl)amino)pyrimidin-4-yl)amino)hexahydrofuro[3,2-b]furan-3-yl)-2-methylpropane-1-sulfonamide], for which the half-inhibitory concentration (IC50) – broadly, the concentration at which inhibition is half-maximal – amounted to 20 nM at Aurora-A (h) and 29 nM on Aurora-B (h). For the same compound, the half-life at 5 μM stood at 0.617 h in series [1] and 1.12 h in series [2]. Also, the CLint scaled (usually the capacity of the preparation to metabolise the compound, expressed as a volume cleared per time) at 5 μM in series [1] was 47 mL/min/kg; in series [2], 36.9 mL/min/kg.

Regarding `Cn1cc(Nc2ncc(Cl)c(N[C@@H]3COC4C3OC[C@@H]4NS(=O)(=O)CC3CC3)n2)cn1` (stereo partly drawn) [Ex. 25, N-((3S,6R)-6-((5-chloro-2-((1-methyl-1H-pyrazol-4-yl)amino)pyrimidin-4-yl)amino)hexahydrofuro[3,2-b]furan-3-yl)-1-cyclopropylmethanesulfonamide], the IC50 was found to be 5 nM at Aurora-A (h) and 24 nM against Aurora-B (h). The figures for the half-life at 5 μM in series [1] and in series [2] were 1.39 h and 1.16 h, respectively. Besides, the results for the intrinsic metabolic clearance (CLint scaled) at 5 μM in series [1] and in series [2] were 20.8 mL/min/kg and 35.6 mL/min/kg, respectively.

`Cn1cc(Nc2ncc(Cl)c(N[C@@H]3COC4C3OC[C@@H]4NS(=O)(=O)CC(C)(C)C#N)n2)cn1` (stereo partly drawn) [Ex. 26, N-((3S,6R)-6-((5-chloro-2-((1-methyl-1H-pyrazol-4-yl)amino)pyrimidin-4-yl)amino)hexahydrofuro[3,2-b]furan-3-yl)-2-cyano-2-methylpropane-1-sulfonamide]: the IC50 amounted to 6 nM against Aurora-A (h) and 11 nM at Aurora-B (h). In addition, the half-life at 5 μM stood at 0.561 h in series [1] and 0.682 h in series [2]. Moreover, the values for the CLint scaled at 5 μM in series [1] and in series [2] were 51.7 mL/min/kg and 60.7 mL/min/kg, respectively.

As to `Cn1cc(Nc2ncc(Cl)c(N[C@@H]3COC4C3OC[C@@H]4NS(=O)(=O)CC(F)(F)F)n2)cn1` (stereo partly drawn) [Ex. 27, N-((3S,6R)-6-((5-chloro-2-((1-methyl-1H-pyrazol-4-yl)amino)pyrimidin-4-yl)amino)hexahydrofuro[3,2-b]furan-3-yl)-2,2,2-trifluoroethanesulfonamide], the figures for the IC50 on Aurora-A (h) and at Aurora-B (h) were 39 nM and 8 nM, respectively. The half-life at 5 μM in series [1] amounted to 3.16 h; in series [2], 0.942 h. For the same compound, the intrinsic metabolic clearance (CLint scaled) at 5 μM in series [1] is 9.16 mL/min/kg; in series [2], 44 mL/min/kg.
